Experimental data from ChEMBL document CHEMBL1201862, “PubChem BioAssay data set” (2004).
Activity calls are given as the source filed them.

Key:
[1] = target: Polyadenylate-binding protein 1 (Homo sapiens, UniProt P11940); assay: PABP inhibition in translation initiation, SAR follow-up (AID 435018); assay type: functional
[2] = target: Eukaryotic translation initiation factor 4H (Homo sapiens, UniProt Q15056); assay: eIF4H inhibition in translation initiation, SAR follow-up (AID 435011); assay type: functional
X-box-binding protein 1 = X-box-binding protein 1 (Homo sapiens, UniProt P17861); assay type: functional, Cricetulus griseus;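 also: confirmatory dose-response counter-screen serving a CHOP assay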
X-box-binding protein 1, sequence (P17861 whole entry): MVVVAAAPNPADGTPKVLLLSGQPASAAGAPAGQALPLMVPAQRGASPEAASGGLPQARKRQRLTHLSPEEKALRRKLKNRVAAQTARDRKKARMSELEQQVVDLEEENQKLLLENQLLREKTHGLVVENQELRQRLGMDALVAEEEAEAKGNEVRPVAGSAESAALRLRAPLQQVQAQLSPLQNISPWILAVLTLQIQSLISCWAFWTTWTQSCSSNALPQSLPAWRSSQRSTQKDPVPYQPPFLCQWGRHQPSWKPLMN

Genome polyprotein = Genome polyprotein (dengue virus type 2, UniProt P29990); assay: Dengue-2 NS5 methyltransferase inhibitors, primary screen, biochemical, confirmation dose response (AID 588689); assay type: functional
Genome polyprotein, sequence (P29990 2492-3391 limits assumed): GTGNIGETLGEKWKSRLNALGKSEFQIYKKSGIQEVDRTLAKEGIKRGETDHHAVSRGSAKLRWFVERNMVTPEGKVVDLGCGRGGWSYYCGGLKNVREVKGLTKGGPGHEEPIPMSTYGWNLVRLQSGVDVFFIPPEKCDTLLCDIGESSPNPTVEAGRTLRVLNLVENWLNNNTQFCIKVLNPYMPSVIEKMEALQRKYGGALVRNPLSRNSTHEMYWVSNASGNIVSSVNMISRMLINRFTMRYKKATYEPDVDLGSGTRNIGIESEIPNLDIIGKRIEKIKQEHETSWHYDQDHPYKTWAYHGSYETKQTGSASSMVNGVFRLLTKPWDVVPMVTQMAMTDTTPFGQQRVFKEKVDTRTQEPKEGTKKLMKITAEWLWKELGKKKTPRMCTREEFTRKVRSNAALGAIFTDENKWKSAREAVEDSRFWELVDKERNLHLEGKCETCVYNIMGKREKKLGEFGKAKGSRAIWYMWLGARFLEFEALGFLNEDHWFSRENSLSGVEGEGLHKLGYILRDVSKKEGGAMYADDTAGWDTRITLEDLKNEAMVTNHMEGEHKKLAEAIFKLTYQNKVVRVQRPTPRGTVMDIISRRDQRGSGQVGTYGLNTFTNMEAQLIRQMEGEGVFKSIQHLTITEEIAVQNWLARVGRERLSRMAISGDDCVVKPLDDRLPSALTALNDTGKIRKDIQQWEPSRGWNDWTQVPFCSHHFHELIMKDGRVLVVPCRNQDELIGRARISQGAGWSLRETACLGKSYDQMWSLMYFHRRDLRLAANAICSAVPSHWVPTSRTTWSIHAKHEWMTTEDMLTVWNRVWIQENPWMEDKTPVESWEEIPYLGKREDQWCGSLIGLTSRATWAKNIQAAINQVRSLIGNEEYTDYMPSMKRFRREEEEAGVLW

Bcl-2-like protein 10 = target: T1, Bcl-2-like protein 10 (Homo sapiens, UniProt Q9HD36); assay: displacers of TR3 peptide from Bcl-B, primary screen, selectivity assay for Bfl-1 inhibitor project, biochemical, fluorescence polarization, FITC-TR3 peptide (AID 748);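 also: fluorescence polarization from a fluorescein-labelled TR3 peptide binding purified Bcl-B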
T1 sequence (Q9HD36 whole entry): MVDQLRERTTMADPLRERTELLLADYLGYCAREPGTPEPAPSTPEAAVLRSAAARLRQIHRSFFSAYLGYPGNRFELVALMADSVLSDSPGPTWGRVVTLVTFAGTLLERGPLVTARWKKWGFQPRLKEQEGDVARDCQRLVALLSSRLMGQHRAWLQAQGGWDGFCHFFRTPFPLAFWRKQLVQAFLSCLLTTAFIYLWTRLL

[3] = cytotoxicity toward NIH3T3 fibroblasts, dose response, counter-screen, cell-based, ATP luminescence, mouse fibroblasts (AID 2010); assay type: functional;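 also: cells exposed to compound for about 90 hours before reading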
[4] = target: T2, Corticotropin-releasing factor receptor 2/Corticotropin-releasing factor-binding protein (Homo sapiens, UniProt P24387+Q13324); assay: activators of CRF receptor 2 with binding protein – uHTS hits, confirmation (AID 602473); assay type: functional; settings: read-out: EC50_Mean
T2 sequence (Q13324 whole entry): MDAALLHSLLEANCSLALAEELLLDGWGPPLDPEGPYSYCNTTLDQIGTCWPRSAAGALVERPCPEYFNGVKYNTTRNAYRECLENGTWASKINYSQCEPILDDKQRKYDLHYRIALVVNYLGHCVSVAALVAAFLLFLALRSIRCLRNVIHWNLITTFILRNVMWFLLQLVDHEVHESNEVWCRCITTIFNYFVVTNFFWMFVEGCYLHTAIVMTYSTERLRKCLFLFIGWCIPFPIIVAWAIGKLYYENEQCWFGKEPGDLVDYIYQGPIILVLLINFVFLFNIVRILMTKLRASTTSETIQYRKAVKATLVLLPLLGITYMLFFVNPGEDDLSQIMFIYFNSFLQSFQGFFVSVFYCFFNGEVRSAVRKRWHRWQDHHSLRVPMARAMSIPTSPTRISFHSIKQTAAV
T2 sequence (P24387 whole entry): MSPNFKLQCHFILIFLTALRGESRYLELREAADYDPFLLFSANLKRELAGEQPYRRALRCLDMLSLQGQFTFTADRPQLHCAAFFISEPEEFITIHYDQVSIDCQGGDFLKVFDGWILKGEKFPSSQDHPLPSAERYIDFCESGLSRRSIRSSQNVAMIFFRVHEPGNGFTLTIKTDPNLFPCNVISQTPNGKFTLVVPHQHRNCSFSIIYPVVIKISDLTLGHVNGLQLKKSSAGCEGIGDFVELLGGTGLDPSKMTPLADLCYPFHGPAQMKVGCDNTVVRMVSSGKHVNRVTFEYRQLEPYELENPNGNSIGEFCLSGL

[5] = inhibitors of intracellular T. cruzi replication, confirmation, NIH3T3 host cells, beta-gal luminescence (AID 2044); assay type: functional, cell-based;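 also: intracellular parasites grown in NIH/3T3 mouse fibroblasts as host cells; luminescent beta-galactosidase reporter signal from transgenic T. cruzi replicating inside host cells; inhibitors lower the luminescence signal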
[6] = target: T3, Carboxy-terminal domain RNA polymerase II polypeptide A small phosphatase 1 (Homo sapiens, UniProt Q9GZU7); assay: inhibitors of CTDSP1, concentration-response testing, biochemical assay, absorbance-based, actives from ultra-high-throughput screening (AID 540297); assay type: functional
T3 sequence (Q9GZU7 whole entry): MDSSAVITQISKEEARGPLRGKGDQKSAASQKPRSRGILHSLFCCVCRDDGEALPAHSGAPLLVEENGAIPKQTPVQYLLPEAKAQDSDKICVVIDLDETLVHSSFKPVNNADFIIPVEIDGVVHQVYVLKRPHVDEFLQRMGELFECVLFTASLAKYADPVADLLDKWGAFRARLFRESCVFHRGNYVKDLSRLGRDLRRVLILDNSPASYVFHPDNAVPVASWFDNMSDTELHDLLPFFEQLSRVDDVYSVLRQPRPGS

[7] = target: E3 ubiquitin-protein ligase XIAP (Homo sapiens, UniProt P98170); assay: Counter Screen using XIAP-Bir3 for Chemical Antagonists of Bir1/2 domains of IAP-family anti-apoptotic proteins. [Related pubchem assays (depositor defined):AID1018, AID1449, AID1514, AID1638, AID1749, AID1750, AID488957, AID488963]
E3 ubiquitin-protein ligase XIAP, sequence (P98170 whole entry): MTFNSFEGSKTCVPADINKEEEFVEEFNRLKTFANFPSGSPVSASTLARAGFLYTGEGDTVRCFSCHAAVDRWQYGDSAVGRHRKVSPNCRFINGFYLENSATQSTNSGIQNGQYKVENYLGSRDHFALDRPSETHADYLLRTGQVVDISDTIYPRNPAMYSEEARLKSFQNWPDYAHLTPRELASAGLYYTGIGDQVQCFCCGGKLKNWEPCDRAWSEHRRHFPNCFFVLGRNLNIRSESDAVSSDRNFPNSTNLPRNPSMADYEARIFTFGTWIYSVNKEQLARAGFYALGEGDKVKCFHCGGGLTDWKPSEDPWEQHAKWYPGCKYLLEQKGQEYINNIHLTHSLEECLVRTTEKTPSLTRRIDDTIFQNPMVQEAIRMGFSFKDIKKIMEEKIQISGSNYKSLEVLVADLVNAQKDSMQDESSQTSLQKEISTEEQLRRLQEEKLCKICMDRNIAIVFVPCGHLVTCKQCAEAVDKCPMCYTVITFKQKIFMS

CAAX prenyl protease 2 = CAAX prenyl protease 2 (Saccharomyces cerevisiae S288c, UniProt Q03530); assay type: biochemical
CAAX prenyl protease 2, sequence (Q03530 whole entry): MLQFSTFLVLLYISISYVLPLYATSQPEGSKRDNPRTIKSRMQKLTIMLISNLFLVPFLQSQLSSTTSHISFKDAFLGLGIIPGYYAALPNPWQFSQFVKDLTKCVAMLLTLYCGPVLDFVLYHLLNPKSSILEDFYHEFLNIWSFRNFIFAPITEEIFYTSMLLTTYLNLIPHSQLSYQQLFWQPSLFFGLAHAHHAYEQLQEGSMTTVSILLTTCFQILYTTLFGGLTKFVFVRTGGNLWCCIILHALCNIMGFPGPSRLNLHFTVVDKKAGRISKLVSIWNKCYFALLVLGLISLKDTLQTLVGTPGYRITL

Cytochrome P450 2C9 = Cytochrome P450 2C9 (Homo sapiens, UniProt P11712)
Cytochrome P450 2C9, sequence (P11712 whole entry): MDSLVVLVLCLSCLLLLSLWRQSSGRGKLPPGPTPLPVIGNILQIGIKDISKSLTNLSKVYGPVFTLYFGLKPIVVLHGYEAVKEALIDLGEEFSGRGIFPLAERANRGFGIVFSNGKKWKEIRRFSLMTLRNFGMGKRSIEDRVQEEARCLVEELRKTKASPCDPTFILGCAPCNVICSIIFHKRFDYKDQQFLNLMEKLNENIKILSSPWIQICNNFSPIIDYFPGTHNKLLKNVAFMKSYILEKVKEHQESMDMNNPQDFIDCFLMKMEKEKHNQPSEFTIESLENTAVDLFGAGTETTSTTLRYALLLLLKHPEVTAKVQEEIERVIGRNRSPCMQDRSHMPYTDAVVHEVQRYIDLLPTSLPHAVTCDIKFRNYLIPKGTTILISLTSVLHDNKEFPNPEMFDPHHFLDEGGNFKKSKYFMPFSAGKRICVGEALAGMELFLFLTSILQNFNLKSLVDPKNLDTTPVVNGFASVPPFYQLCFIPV

Cytochrome P450 2D6 = Cytochrome P450 2D6 (Homo sapiens, UniProt P10635);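 also: CYP2D6 member of a cytochrome P450 panel assay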
Cytochrome P450 2D6, sequence (P10635 whole entry): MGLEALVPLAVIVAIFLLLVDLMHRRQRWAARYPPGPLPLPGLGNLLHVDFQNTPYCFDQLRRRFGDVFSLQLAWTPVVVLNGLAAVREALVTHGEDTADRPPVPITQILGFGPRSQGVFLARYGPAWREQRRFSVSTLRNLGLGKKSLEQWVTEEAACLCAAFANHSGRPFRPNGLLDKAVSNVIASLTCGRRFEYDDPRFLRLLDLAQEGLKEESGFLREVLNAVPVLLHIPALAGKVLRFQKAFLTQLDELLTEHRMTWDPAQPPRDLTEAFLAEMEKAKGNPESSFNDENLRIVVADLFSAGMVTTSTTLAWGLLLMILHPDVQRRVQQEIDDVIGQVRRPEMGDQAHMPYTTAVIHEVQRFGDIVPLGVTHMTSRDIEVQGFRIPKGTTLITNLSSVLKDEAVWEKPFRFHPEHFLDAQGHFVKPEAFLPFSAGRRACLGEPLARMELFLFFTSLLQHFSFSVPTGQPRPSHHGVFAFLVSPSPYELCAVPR

Streptococcus = assay: Group A Streptococcus viability loss, dose response, counter-screen for streptokinase expression inhibitor project, luminescence, BacTiterGlo (AID 1915); assay type: functional, organism-based;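 also: potency for reduction of bacterial viability or growth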
Streptokinase A = target: T4, Streptokinase A (Streptococcus pyogenes serotype M1, UniProt P10520); assay: S. pyogenes streptokinase expression inhibitors, potency, dose response, plasminogen activation absorbance, OD405 (AID 1914); assay type: functional, Streptococcus pyogenes M1 GAS;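 also: secreted streptokinase activity via plasminogen activation per viability signal from cell pellet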
T4 sequence (P10520 whole entry): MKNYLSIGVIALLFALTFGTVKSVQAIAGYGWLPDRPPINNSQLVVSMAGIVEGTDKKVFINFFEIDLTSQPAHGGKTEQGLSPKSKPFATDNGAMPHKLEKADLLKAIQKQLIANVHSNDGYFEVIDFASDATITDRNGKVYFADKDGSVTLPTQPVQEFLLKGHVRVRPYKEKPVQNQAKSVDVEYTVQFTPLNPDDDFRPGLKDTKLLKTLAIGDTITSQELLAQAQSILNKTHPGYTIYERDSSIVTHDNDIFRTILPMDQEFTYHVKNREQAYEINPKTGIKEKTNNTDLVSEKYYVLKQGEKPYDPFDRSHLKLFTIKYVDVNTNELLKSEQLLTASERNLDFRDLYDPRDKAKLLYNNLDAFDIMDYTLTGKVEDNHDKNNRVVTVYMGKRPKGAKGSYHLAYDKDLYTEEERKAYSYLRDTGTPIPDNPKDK

[8] = target: G-protein coupled receptor 55 (Homo sapiens, UniProt Q9Y2T6); assay: GPR55 agonists via beta-arrestin recruitment, primary screen, imaging, U2OS cells, beta-arrestin-GFP redistribution (AID 1961); assay type: functional
G-protein coupled receptor 55, sequence (Q9Y2T6 whole entry): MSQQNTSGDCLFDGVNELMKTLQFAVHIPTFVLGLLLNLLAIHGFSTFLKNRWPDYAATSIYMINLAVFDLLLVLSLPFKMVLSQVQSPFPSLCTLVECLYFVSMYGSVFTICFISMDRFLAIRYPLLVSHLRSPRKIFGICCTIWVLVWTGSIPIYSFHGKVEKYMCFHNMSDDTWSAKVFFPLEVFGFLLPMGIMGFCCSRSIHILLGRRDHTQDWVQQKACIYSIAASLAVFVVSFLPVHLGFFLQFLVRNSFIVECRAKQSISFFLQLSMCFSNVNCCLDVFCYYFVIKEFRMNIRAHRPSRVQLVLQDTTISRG

[9] = system: Streptococcus sp. 'group A'; assay: growth inhibition of control SK(-) GAS strain, dose response, counter-screen for streptokinase expression inhibitor project, luminescence, kanamycin, BacTiterGlo, confirmation (AID 1900); assay type: functional, organism-based
Prothrombin = Prothrombin (Homo sapiens, UniProt P00734); assay: Thrombin 1536 HTS Dose Response Confirmation. [Related pubchem assays: 1046 (Thrombin 1536 HTS; hits were confirmed in this assay)]; assay type: functional

Polyadenylate-binding protein 1, sequence (P11940 whole entry): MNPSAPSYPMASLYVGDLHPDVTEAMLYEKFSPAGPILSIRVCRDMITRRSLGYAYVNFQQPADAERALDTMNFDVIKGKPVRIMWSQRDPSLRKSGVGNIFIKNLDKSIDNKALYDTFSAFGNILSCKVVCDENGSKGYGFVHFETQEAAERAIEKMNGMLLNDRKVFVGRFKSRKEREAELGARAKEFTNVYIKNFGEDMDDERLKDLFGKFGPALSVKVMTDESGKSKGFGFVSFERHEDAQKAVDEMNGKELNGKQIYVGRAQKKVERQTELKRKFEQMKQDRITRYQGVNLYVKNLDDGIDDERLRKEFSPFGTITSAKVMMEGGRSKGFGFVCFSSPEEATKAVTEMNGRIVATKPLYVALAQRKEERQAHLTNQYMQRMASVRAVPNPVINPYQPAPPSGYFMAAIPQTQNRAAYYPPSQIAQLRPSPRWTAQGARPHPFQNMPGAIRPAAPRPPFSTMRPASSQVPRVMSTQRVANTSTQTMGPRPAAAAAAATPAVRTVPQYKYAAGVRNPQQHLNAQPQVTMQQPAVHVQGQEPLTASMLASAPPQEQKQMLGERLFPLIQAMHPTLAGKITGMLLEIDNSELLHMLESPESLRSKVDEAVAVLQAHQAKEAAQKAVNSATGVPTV

COc1ccc(C(=O)OCC(=O)Nc2ccc([N+](=O)[O-])cc2OC)c(O)c1
IC50 [1]: > 100 µM (inactive)
IC50 [2]: > 100 µM (inactive)

CSC(SC)=C(C#N)C(=O)c1ccccc1
Absolute IC50 (XBP1) (X-box-binding protein 1): 10 µM
IC50 (Genome polyprotein): 84.6 µM (active)

Cc1cc2c(cc1C)NC(c1c(C)n(C)n(-c3ccccc3)c1=O)C1=C(O)CC(C)(C)CC1=N2 (stereo not given)
IC50 (Bcl-2-like protein 10): > 1.56 µM (inactive)
EC50 [3]: > 30 µM (not active)
EC50 [4]: > 53 µM (inactive)
EC50 [5]: 2.27 µM (active)

Cc1ccccc1NC(=O)CN1C(=O)N/C(=C\c2ccccc2OCc2ccc(C(=O)O)cc2)C1=O
IC50 [1]: 78.5 µM (active)
IC50 [6]: 4.3 µM (active)
IC50 [2]: 7.28 µM (active)
IC50 [7]: > 20 µM (inactive)

COc1ccc(C2Nc3ccccc3C(=O)N2Cc2ccccc2)cc1COc1ccccn1 (stereo not given)
AC50 (CAAX prenyl protease 2): 5.83 µM (active)

Cc1ccccc1-n1cnc2cc(NCc3cccs3)ccc21
AC50 (Cytochrome P450 2C9): 39.8 µM (inconclusive)
AC50 (Cytochrome P450 2D6): 2.24 µM (inconclusive)
EC50 (Streptococcus): > 150 µM (not active)
EC50 (Streptokinase A): 87.8 µM (active)
EC50 [8]: > 32 µM (inactive)
EC50 [9]: 16.8 µM (active)
IC50 (Prothrombin): > 50 µM (not active)
